Laboratory results taken from article PMC8877291, “Design and Synthesis of Arylpiperazine Serotonergic/Dopaminergic Ligands with Neuroprotective Properties” (Molecules, 2022).

Legend:
[1] = molecular target: T1, serotonin 5-HT1A receptor (Homo sapiens, UniProt P08908); test: 5-HT1A receptor radioligand competition binding ([3H]-8-Hydroxy-DPAT); conditions: human cloned receptor, HEK293 membranes, 1 nM [3H]-8-Hydroxy-DPAT; ± S.E.M., n = 3 in duplicate; read-out: Affinity Ki 5-HT1A
T1 construct: expressed in transfected cells
T1 sequence (P08908 1-422): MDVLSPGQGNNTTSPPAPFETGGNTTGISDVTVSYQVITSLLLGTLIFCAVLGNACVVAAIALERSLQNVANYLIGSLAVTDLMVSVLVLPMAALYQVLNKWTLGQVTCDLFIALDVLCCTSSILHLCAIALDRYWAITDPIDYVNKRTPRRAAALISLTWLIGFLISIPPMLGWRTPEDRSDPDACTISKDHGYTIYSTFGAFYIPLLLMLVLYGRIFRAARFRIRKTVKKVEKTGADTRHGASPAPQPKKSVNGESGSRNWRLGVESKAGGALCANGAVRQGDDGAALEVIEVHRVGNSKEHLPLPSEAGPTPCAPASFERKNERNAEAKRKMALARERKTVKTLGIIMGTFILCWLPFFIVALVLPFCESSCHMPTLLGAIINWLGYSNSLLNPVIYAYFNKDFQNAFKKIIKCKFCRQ
Procedure: (§1) As a first step, competition radioligand binding assays were carried out for all the compounds at the single concentration of 10 µM, on membrane preparations from stable cell lines heterologously expressing the human cloned 5-HT1A, 5-HT2A, or 5-HT7 receptors. […] For the affinity determination at dopamine receptor subtypes, membrane fractions of human dopamine D2s, D3, D1, and D5 receptor-expressing cells were used. They were co-incubated with [^3H]spiperone (for D2s and D3 receptor) or [^3H]SCH23390 (for D1 and D5 receptor) and appropriate concentrations of test compound for 120 min. Bound radioligand was separated from the free ligand using filtration. Radioactivity was measured by liquid scintillation counting.
The affinity of the compounds for serotonin 5-HT1A receptor was evaluated in membrane preparations from HEK293 cells stably expressing the human cloned receptor, following previously described procedures with minor modifications. Competition binding experiments were performed using 1 nM [^3H]-8-Hydroxy-DPAT (1 mCi/mL, PerkinElmer NET929250UC) as radioligand. Nonspecific binding was assessed in the presence of 10 µM serotonin. […] Assays were carried out in duplicate in 96-well assay plates, in assay buffer (50 mM Tris-HCl, 5 mM MgSO4, pH = 7.4). Assay mixtures were incubated at 37 °C for 120 min, followed by filtration through GF/C glass filter plates, and washed with ice-cold wash buffer (50 mM Tris-HCl, pH = 7.4).

[2] = molecular target: T2, dopamine D1 receptor (Homo sapiens, UniProt P21728); test: Dopamine D1 receptor competition binding ([3H]-SCH23390); conditions: HEK-293 membranes, [3H]-SCH23390 0.3 nM, mean (CI 95%), read-out: Affinity Ki D1
T2 construct: expressed in transfected cells
Procedure: as §1, with “The final compounds were tested for their affinity at serotonin 5-HT1A, 5-HT2A, and 5-HT7 receptors and at dopamine D1, D2, D3, and D5 receptors. As” for “As”
(§2) The affinity for dopamine D1 and D5 receptors was evaluated in membrane fractions of HEK-293 cells stably expressing the human dopamine D1 or D5 receptor. HEK-293-D1 cells were cultured in DMEM/F12 (15 mM HEPES, 1.2 g/L NaHCO3) with 10% (v/v) FBS and 1% (v/v) L-glutamine. HEK-293-D5 cells were cultured in DMEM/F12 (with L-glutamine, 1.2 g/L NaHCO3) with 20% (v/v) FBS. Preparation of membrane fractions and radioligand competition assays were performed as previously described. Briefly, membrane fractions were co-incubated with [^3H]-SCH23390 (0.3 nM) and different concentrations of test compound for 120 min at room temperature. Fluphenazine (100 µM) was used to determine non-specific binding and as reference compound.
(§3) Data of at least three independent experiments in triplicate were analyzed using GraphPad Prism 8.1 (San Diego, CA, USA). Binding curves were fitted to a non-linear regression model (one-site competition). Ki values were calculated from IC50 values using the Cheng–Prusoff equation. The statistical calculations were performed on –log(Ki).

[3] = molecular target: T3, serotonin 5-HT2A receptor (Homo sapiens, UniProt P28223); test: 5-HT2A receptor radioligand competition binding ([3H]-ketanserin); conditions: human cloned receptor, CHO-K1 membranes, 1 nM [3H]-ketanserin; ± S.E.M., n = 3 in duplicate; read-out: Affinity Ki 5-HT2A
T3 construct: expressed in transfected cells

[4] = Stability assay in rat liver microsomes; format: in vitro ADME; conditions: pH 7.4; rat liver microsomes, 30 min incubation, NADPH-regenerating system, 10 μM; read-out: Metabolic Stability (percentage of recovery of the parent compound)
Procedure: To evaluate the susceptibility to first-pass oxidative metabolism, the leading cause of metabolic degradation in vivo [17] the target compounds were incubated with rat liver microsomes. The turnover of the parent compound was assessed as the percentage of the parent compound recovered after 30 min of incubation with microsomes in the presence of an NADPH-regenerating system.
Test compounds were pre-incubated at 37 °C with rat liver microsomes (Tebu-Bio, Milan, Italy) (1.0 mg/mL microsomal protein) at 10 μM final concentration in 100 mM potassium phosphate buffer (pH 7.4) for 10 min. Metabolic reactions were initiated by the addition of the NADPH regenerating system (containing 10 mM NADP, 50 mM glucose-6-phosphate, and 10 unit/mL glucose-6-phosphate dehydrogenase, final glucose-6-phosphate dehydrogenase concentration, 1 unit/mL). After 30 min incubation, the reaction mixture was quenched by adding an equal volume of cold acetonitrile containing the internal standard. A test compound incubated with microsomes without NADPH regenerating system was included. Quenched samples were centrifuged at 4500 rpm for 15 min and the supernatants were injected for quantification analysis. Samples (100 μL) were analyzed by using an Agilent 1260 Infinity Binary LC System equipped with a diode array detector (Open Lab software was used to analyze the chromatographic data) and a Phenomenex Gemini C-18 column (250 mm × 4.6 mm, 5 μm particle size). The samples were eluted using CH3CN/20 mM ammonium formate pH 5.5 (7:3, v/v) as eluent (volumetric flow rate =1 mL/min). Concentrations were quantified by measuring the area under the peak.
The percentage of the parent compound remaining after a 30-min incubation was calculated according to the equation:% of parent compound remaining after 30 min = Cparent/Ccontrol × 100(1) where Cparent is ligand concentration after incubation with microsome fraction and NADPH regenerating system and Ccontrol is ligand concentration after incubation with microsome fraction only.

[5] = molecular target: T4, dopamine D5 receptor (Homo sapiens, UniProt P21918); test: Dopamine D5 receptor competition binding ([3H]-SCH23390); conditions: HEK-293 membranes, [3H]-SCH23390 0.3 nM, mean (CI 95%), read-out: Affinity Ki D5
T4 construct: expressed in transfected cells
Procedure: as §1, with “The final compounds were tested for their affinity at serotonin 5-HT1A, 5-HT2A, and 5-HT7 receptors and at dopamine D1, D2, D3, and D5 receptors. As” for “As”
as §2, §3

[6] = molecular target: dopamine D2s receptor (Homo sapiens, UniProt P14416); test: Dopamine D2s receptor competition binding ([3H]spiperone)
Procedure: (§4) Competition binding experiments at dopamine D2s and D3 receptor were performed to determine the affinity of the compounds. […] Membrane preparations of transfected CHO-K1 cells stably expressing the human D2s or D3 receptor were performed according to Bautista-Aguilera et al. [26]. The competition binding experiments were conducted as previously reported [26, 27]. Briefly, membrane fractions (D2sR: 25 µg/200 µL; D3R: 20 µg/200 µL) were incubated with [^3H]spiperone (0.2 nM) and test compound for 120 min at room temperature. […] Non-specific binding was determined in the presence of 10 µM haloperidol. Haloperidol was also used as reference compound. Separation of the bound ligand from the free ligand was conducted by filtration through GF/B filters using deionized water.

[7] = molecular target: T5, serotonin 5-HT7 receptor (5-HT7A) (Homo sapiens, UniProt P34969); test: 5-HT7 receptor radioligand competition binding ([3H]-SB269970); conditions: human cloned 5-HT7A receptor, HEK293 membranes, 2 nM [3H]-SB269970; ± S.E.M., n = 3 in duplicate; read-out: Affinity Ki 5-HT7
T5 construct: expressed in transfected cells
Procedure: as §1
The affinity of the compounds for serotonin 5-HT7 receptor was evaluated in membrane preparations from HEK293 cells stably expressing the human cloned 5-HT7A receptor, following previously described procedures with minor modifications. Competition binding experiments were performed using 2 nM [^3H]-SB269970 (34.5 Ci/mmol, 0.25 mCi/mL, Perkin Elmer NET1198U250UC) as radioligand. […] Methiothepine was included in the assays as reference compound. Assays were carried out in duplicate in 96-well assay plates, in assay buffer (50 mM Tris-HCl, 4 mM MgCl2, 1 mM ascorbic acid, 0.1 mM pargyline, pH = 7.4). Assay mixtures were incubated at 37 °C for 60 min, followed by filtration through GF/C glass filter plates, and washing with ice-cold assay buffer. Affinity (equilibrium dissociation constant, Ki) of the compounds was calculated from competition binding curves as indicated above.

[8] = molecular target: dopamine D3 receptor (Homo sapiens, UniProt P35462); test: Dopamine D3 receptor competition binding ([3H]spiperone)
Chain of dopamine D3 receptor (P35462 whole entry): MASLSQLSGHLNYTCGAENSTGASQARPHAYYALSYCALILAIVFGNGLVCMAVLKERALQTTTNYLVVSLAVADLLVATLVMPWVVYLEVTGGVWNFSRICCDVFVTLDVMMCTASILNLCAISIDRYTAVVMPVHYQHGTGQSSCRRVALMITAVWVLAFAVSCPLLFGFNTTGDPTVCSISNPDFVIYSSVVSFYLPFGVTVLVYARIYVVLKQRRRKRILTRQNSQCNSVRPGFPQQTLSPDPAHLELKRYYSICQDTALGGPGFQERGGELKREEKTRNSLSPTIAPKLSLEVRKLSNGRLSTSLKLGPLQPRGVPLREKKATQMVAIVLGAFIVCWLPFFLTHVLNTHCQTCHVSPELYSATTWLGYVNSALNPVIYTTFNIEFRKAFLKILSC
Procedure: as §4

Chain of dopamine D2s receptor (P14416 1-414 isoform P14416-2): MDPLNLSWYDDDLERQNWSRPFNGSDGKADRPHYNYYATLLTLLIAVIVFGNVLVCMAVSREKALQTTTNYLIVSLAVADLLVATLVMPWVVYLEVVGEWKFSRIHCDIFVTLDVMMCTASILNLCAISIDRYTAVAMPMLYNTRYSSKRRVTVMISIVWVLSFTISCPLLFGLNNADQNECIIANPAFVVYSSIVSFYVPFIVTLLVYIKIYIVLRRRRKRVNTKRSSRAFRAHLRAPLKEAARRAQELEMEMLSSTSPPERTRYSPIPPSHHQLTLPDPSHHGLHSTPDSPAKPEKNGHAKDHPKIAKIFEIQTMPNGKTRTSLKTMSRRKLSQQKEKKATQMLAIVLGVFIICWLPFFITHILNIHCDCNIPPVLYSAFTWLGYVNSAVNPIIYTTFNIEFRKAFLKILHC
T2 sequence (P21728 whole entry): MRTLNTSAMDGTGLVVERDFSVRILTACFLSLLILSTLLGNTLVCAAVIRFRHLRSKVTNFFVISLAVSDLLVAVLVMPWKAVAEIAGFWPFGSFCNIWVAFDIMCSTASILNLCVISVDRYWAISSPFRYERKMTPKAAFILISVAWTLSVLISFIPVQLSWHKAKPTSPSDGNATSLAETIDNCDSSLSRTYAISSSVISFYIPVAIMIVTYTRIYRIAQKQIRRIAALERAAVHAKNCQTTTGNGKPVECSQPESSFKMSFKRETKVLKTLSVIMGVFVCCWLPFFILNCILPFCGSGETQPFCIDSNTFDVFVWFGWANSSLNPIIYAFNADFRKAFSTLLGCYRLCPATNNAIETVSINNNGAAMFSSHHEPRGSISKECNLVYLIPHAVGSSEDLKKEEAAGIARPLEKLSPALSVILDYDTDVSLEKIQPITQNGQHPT
T3 sequence (P28223 whole entry): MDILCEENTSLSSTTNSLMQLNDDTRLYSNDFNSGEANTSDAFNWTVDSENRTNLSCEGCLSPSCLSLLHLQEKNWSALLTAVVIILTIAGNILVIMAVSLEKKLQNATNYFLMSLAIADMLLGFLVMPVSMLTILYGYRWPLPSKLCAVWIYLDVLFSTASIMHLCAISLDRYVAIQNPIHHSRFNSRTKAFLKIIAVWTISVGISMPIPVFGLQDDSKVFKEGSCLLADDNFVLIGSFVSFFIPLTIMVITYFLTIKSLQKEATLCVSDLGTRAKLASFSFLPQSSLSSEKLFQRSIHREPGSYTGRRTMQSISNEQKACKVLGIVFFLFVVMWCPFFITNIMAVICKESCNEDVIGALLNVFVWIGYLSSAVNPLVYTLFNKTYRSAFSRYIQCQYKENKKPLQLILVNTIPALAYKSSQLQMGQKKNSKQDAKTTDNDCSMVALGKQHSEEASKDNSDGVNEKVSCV
T4 sequence (P21918 whole entry): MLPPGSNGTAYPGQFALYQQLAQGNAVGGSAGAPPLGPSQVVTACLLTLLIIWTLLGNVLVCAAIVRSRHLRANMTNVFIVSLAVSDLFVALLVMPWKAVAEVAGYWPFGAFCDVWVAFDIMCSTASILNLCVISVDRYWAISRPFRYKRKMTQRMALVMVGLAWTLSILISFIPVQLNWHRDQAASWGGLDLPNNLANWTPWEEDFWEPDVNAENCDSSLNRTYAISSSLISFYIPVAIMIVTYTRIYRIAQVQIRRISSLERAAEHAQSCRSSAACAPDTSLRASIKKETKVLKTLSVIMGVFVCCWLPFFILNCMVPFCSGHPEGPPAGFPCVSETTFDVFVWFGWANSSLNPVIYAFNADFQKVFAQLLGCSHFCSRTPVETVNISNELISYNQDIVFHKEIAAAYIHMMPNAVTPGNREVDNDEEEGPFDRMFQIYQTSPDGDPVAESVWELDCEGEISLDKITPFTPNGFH
T5 sequence (P34969 1-445 isoform P34969-2): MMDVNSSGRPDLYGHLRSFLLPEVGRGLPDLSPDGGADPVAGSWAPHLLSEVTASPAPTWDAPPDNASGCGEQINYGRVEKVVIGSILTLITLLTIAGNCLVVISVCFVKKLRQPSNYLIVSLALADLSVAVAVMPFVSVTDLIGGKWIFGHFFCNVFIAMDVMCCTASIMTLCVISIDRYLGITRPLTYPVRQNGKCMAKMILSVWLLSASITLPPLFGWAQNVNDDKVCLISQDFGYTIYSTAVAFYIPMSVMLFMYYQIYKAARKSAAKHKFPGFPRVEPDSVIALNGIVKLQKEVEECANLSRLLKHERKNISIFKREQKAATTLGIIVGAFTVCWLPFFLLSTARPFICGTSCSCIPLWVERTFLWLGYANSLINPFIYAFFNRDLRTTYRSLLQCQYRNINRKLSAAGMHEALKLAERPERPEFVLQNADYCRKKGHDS

Ki [1]: 653 ± 95 nM
Ki [2]: 193 nM
Ki [3]: 49.1 ± 12 nM
remaining at 30 min, 10 μM [4]: < 3%
Ki [5]: 413 nM
Ki [6]: > 10000 nM
Ki [7]: 60.8 ± 7.1 nM
Ki [8]: > 10000 nM
SMILES: COc1ccc(-c2cc(F)ccc2N2CCN(CCCn3ncc(=O)n(C)c3=O)CC2)cc1 [Compound 9a, 2-(3-(4-(5-Fluoro-4’-methoxy-[1,1’-biphenyl]-2-yl)piperazin-1-yl)propyl)-4-methyl-1,2,4-triazine-3,5(2H,4H)-dione]
